# Experimental data: patent US8697662B2, “Methods for treating Kaposi sarcoma” (PTC Therapeutics, Inc., priority 2009, dated 2014)
# Marks after values point to notes of the source that are not given here.
# Key:
# [1] = test system: Chinese hamster ovary (CHO) cells; assay: Chromosome aberration study in CHO cells; type: cell-based; settings: with and without exogenous metabolic activation
# Method: Genotoxicity was assessed in a battery of in vitro and in vivo studies that included a bacterial reverse mutation study, a chromosome aberration study in Chinese hamster ovary (CHO) cells, and a micronucleus study in rats by the oral route. The in vitro studies were performed in the presence and absence of an exogenous metabolic activation system.
# VEGF-A = assay: Patients with Kaposi Sarcoma: circulating serum and plasma VEGF-A levels; type: in vivo, human
# Source text: Assaying secreted cytokines characteristic for KS: To measure the effect of a Compound on KS, serum and plasma may be evaluated for levels of VEGF, VEGF-C, VEGF-D, VEGF-R1, VEGF-R2, VEGF165b, P1GF, IL-6, IL-8 and IL-10 at baseline (pre-dose of a Compound on Day 1) and mid-cycle (e.g., Day 15) of cycle 1, on Day 1 of all subsequent cycles, and at the end of the study. Depending on the results of these assays, other potential serum markers characteristic for KS may also be measured.
# HT1080 xenografts = assay: Time course of tumor size and plasma human VEGF in HT1080 xenografts; type: in vivo, athymic nude mice
# Method: Experimental Design. HT1080 cells (5×10^6 cells/mouse) were implanted subcutaneously in male athymic nude mice.
# Tumor size was measured by calipers immediately pre-treatment and at the time of sacrifice on Day 1, 2, or 3 (5 mice per group per day). At sacrifice, the plasma was collected for assay of pathologic human VEGF concentration using an ELISA that recognizes human VEGF121 and VEGF165 (as described in Section 9.1.1.1).
# physiological VEGF-A = assay: Phase 1 study in healthy volunteers: plasma and serum physiological VEGF-A concentrations; type: in vivo, human; settings: any dose tested
# Method: The study was performed under the oversight of the French health authorities. The study was not performed under an IND.
# Plasma VEGF Concentrations: Plasma and serum VEGF concentrations and concentration changes from baseline were presented descriptively.
# CYP1A2 = molecular target: T1, CYP1A2 (Homo sapiens, UniProt P05177); assay: CYP inhibition in human hepatic microsomes or recombinant isoenzymes: CYP1A2; type: in vitro ADME
# T1 construct: host or cells: human hepatic microsomes or human recombinant isoenzymes
# T1 sequence (P05177 whole entry): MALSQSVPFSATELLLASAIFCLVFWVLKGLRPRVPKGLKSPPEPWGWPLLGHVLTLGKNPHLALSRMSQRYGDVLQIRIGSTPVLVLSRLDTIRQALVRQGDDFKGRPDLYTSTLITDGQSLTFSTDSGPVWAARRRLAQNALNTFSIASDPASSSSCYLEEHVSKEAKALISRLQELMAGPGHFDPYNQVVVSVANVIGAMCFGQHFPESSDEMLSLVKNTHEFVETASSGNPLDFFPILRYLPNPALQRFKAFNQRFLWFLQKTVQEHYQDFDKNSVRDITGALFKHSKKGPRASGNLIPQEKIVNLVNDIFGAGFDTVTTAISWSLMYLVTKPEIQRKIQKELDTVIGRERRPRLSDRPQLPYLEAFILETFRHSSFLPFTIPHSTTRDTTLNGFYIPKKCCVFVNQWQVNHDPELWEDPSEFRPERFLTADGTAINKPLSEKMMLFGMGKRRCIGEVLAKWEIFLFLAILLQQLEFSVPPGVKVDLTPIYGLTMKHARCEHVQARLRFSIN
# Source text: (§1) It is possible that in certain clinical trial subjects, such agents may need to be adjusted for dosing or replaced by alternative agents that are not metabolized by CYP2D6, particularly when such agents may have a low therapeutic index.
# HT1080 cells = assay: Migration of cells out of re-plated HT1080 spheroids; type: cell-based, human
# Method: Experimental Design. […] Pictures were then taken 48 hours to assess the migration and proliferation of the cells across the well's surface.
# [2] = test system: SY5Y orthotopic xenografts; assay: Orthotopic SY5Y neuroblastoma tumor model (kidney capsule), tumor weight; type: in vivo; settings: 5 weeks of treatment
# Source text: Experimental Design. In orthotopic tumor models, human tumor cells are implanted into the mouse in an organ that corresponds to the location from which the tumors arise. Such models may provide a better predictor of clinical efficacy than injection of tumors into the flanks of nude mice. See Hoffman, Invest. New Drugs 1999, 17(4):343-59. SY5Y neuroblastoma or SKNEP Ewing sarcoma tumor cells (1×10^6 cells/mouse) were implanted into the kidney capsule of female athymic nude mice according to published methods. See Huang et al., Proc. Natl. Acad. Sci. USA 2003, 100(13):7785-90. One week after implantation of each type of tumor, mice were divided into 2 groups and were administered a test Compound as shown in Table 21.
# After 5 weeks of treatment, the mice were sacrificed, and the weights of the tumors were assessed.
# [3] = test system: soluble VEGF121 and VEGF165 isoforms; assay: ELISA of soluble VEGF121/165 production in HeLa cells under hypoxia or normoxia; type: cell-based, human
# Method: Experimental Design. HeLa (human cervical carcinoma) cell cultures were established under normoxic conditions (21% oxygen). HeLa cells increase VEGF production 4- to 5-fold in response to hypoxia. […] At the completion of treatment, the conditioned media were collected and the VEGF protein levels were assayed in an enzyme-linked immunosorbent assay (ELISA) with primary antibodies that recognize the soluble VEGF121 and VEGF165 isoforms (R & D Systems, Minneapolis, Minn., USA). To ensure that decreases in VEGF concentration were not due to cytotoxicity, cultures were assayed using a standard assay ([…]-GLO® Luminescent Cell Viability Assay; Promega, Madison, Wis., USA) that measures total cellular adenosine triphosphate (ATP) concentrations as an indicator of cell viability.
# [4] = test system: normal human keratinocyte; assay: ATP viability assay in keratinocytes; type: cell-based; settings: any concentration tested
# Method: Experimental Design. Nontransformed normal human keratinocyte cell cultures were established under normoxic conditions (21% oxygen). […] At the completion of treatment, cells were assessed for viability with an ATP assay and conditioned media were evaluated for VEGF protein levels by ELISA (as described in Section 9.1.1.1).
# [5] = In vitro plasma protein binding of 14C-radiolabeled Compound #10; type: in vitro ADME, mice, rats, dogs, monkeys, and humans; settings: 0.05 to 50 μg/mL
# [6] = test system: soluble VEGF121 and VEGF165 isoforms; assay: ELISA of soluble VEGF production in multiple human tumor cell lines (EC50); type: cell-based; settings: 18 human tumor cell lines
# Method: Study Design. […] In these experiments, cultures were established under normoxic conditions (21% oxygen). […] Cells requiring induction of VEGF production were incubated under hypoxic conditions (1% oxygen). At the completion of treatment, the conditioned media were collected and assayed by ELISA (as described in Section 9.1.1.1) for soluble VEGF121 and VEGF165 isoforms; results were calculated as percentage inhibition relative to vehicle treated controls. EC50 values were calculated from the dose concentration response curves.
# in vivo = settings: both, beagle, dog, po
# Method: The L23 vehicle was used. […] All studies in the toxicology program were conducted according to GLP regulations.
# [7] = ECG and blood pressure assessments in 7-day and 28-day dog toxicity studies; type: in vivo, beagle dogs
# SY5Y xenografts = assay: Tumor growth inhibition in subcutaneous SY5Y neuroblastoma xenografts; type: in vivo, athymic nude mice
# Method: Experimental Design. SY5Y cells are derived from a human neuroblastoma, a childhood tumor arising in neural crest cells. SY5Y cells (1×10^7 cells/mouse) were implanted subcutaneously in male athymic nude mice.
# Tumor size was measured by calipers at periodic intervals. When the average tumor size in a group exceeded 2000 mm^3, the mice in the group were sacrificed and excised tumors were assayed for intratumoral VEGF concentration as described in Section 9.1.1.1.
# CYPC19 = molecular target: T2, CYPC19 (Homo sapiens, UniProt P33261); assay: CYP inhibition in human hepatic microsomes or recombinant isoenzymes: CYPC19; type: in vitro ADME
# T2 construct: host or cells: human hepatic microsomes or human recombinant isoenzymes
# T2 sequence (P33261 whole entry): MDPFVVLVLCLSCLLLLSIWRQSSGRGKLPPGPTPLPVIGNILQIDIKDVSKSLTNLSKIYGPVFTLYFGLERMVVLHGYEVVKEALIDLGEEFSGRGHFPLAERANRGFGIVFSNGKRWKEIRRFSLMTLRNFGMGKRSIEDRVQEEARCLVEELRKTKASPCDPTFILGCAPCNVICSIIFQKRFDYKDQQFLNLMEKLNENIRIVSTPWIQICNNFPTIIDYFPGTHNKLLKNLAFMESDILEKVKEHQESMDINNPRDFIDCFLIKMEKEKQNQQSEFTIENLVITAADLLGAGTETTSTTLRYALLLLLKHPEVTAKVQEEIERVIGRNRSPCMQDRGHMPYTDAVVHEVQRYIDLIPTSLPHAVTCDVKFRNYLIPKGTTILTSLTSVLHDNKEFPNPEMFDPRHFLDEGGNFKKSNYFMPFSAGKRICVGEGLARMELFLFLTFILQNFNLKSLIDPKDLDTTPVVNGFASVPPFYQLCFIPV
# Source text: as §1
smiles,measurement,setting,value
COc1ccc(C2c3[nH]c4ccc(Cl)cc4c3CCN2C(=O)Oc2ccc(Cl)cc2)cc1 (racemic) [Compound #10],genotoxic effects,[1],no evidence of genotoxic effects
same,circulating serum VEGF-A levels (in words),VEGF-A; patients (FIG. 35A),dose responsive reduction
same,circulating plasma VEGF-A levels (in words),VEGF-A; patients (FIG. 35B),dose responsive reduction
same,pathologic plasma human VEGF concentrations (in words),"HT1080 xenografts; Days 2 and 3, 10 mg/kg oral QD",continued to decline
same,pathologic plasma human VEGF levels (in words),HT1080 xenografts; by Day 1,numerically lower than in control animals
same,"reducing tumor derived plasma VEGF levels, comparison (in words)",HT1080 xenografts; by Day 3 of treatment,as active as bevacizumab and more effective than doxorubicin
same,plasma or serum physiological VEGF-A concentrations,physiological VEGF-A,No significant alterations
same,inhibition of CYP1A2 (in words),CYP1A2,No meaningful inhibition
same,migration of cells out of the spheroid (in words),HT1080 cells; control spheroids re-plated in the presence of 50 nM,blocked in their ability to migrate out of the spheroid
same,proliferative and migratory capacity after exposure (in words),"HT1080 cells; three-week exposure at 50 nM, re-plated in the absence of the compound",does not reduce either the proliferative or the migratory capacity
same,tumor growth (tumor weight) (in words),[2],completely prevented growth
same,decrease in VEGF concentrations in conditioned media,"[3]; normoxic, 48 hours",39%
same,inhibition of VEGF production (in words),[3]; stress (hypoxia)-induced VEGF,inhibit stress-induced VEGF production
same,"toxicity (viability, ATP assay)",[4],No toxicity was observed
same,concentration dependence of protein binding (in words),[5],independent of concentration
same,EC50 values for cell lines showing VEGF inhibition (in words),[6],low nanomolar range
same,NOAEL at 28 days,in vivo,30 mg/kg/day
same,QTc values,"[7]; males, 60 mg/kg/day, 28-day study",comparable to controls
same,ECG or blood pressure results,"[7]; through 120 mg/kg/day for 7-days and through 60 mg/kg/day for 28-days, oral",did not have any toxicological effects
same,Mean % Inhibition of Intratumoral VEGF vs Vehicle at Sacrifice,"SY5Y xenografts; 50 mg/kg QD, 250 mg/kg per week (Table 18), oral 5 days per week",96* %
same,mean tumor size (in words),SY5Y xenografts; through 15-days of dosing,essentially eliminated any increase in mean tumor size
same,inhibition of CYPC19 (in words),CYPC19,No meaningful inhibition
